From patent US20120309796A1, “BENZOCYCLOHEPTENE ACETIC ACIDS” (priority 2011, published 2012)

Target: T1, human CRTH2 (Homo sapiens, UniProt Q9Y5Y4)
T1 sequence (Q9Y5Y4 1-395): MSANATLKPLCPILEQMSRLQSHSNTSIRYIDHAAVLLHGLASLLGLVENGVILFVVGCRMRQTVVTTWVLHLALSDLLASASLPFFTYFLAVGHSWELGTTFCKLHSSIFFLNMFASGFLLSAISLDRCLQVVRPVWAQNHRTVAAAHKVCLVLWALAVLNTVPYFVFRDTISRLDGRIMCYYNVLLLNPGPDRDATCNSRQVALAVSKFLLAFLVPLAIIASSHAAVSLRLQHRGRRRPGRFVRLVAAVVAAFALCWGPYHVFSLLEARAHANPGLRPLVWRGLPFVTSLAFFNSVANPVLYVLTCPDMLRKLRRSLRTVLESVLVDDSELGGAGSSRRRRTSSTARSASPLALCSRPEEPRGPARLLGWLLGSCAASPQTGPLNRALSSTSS
Assay: Human CRTH2 Receptor Binding Assay (whole cell, [3H]ramatroban competition)
Design: two mammalian expression vectors that harbored human CRTH2 and G-alpha16 cDNAs; expressed in transfected cells
Details: CHO-K1 cells expressing human CRTH2 and G-alpha16; 20 nM [3H]ramatroban; 1 hour, room temperature
Source text: A whole cell receptor binding assay using [^3H]ramatroban as the competing radioactive ligand was employed to evaluate the compound binding activity to human CRTH2. The radioactive ligand [^3H]ramatroban was synthesized according to Sugimoto et. al. (Eur. J. Pharmacol. 2005, 524, 30-37) to a specific activity of 42 Ci/mmol
A cell line stably expressing human CRTH2 was established by transfecting CHO-K1 cells with two mammalian expression vectors that harbored human CRTH2 and G-alpha16 cDNAs, respectively, using FuGene® 6 transfection reagent (from Roche). Stable clones expressing CRTH2 were selected by staining each clone with BM16 (BD Pharmingen™ from BD Biosciences, a division of Becton, Dickinson and Company), which is a rat monoclonal antibody to human CRTH2. The cells were maintained as monolayer cultures in Ham's F-12 medium containing 10% fetal bovine serum, 100 units/mL penicillin, 100 μg/mL streptomycin, 2 mM glutamine, 0.5 mg/mL G418 (geneticin) for CRTH2, and 0.2 mg/mL hygromycin-B (for G-alpha 16). For whole cell receptor binding assay, the monolayer cells were rinsed once with PBS (phosphate buffered saline), dissociated using ethylenediaminetetraacetate (Versene™ EDTA from Lonza Inc.), and suspended in PBS containing 10 mM MgCl2 and 0.06% BSA (bovine serum albumin) at 1.5×10^6 cells/mL.
The binding reactions (0.2 mL) were performed in 96-well plates at room temperature in PBS containing 1.5×10^5 cells, 10 mM MgCl2, 0.06% BSA, 20 nM [^3H]ramatroban, and test compound at various concentrations. After 1 hour of binding reactions, the cells were harvested on GF™/B filter microplates (microtiter plates with embedded glass fiber from PerkinElmer, Inc.) and washed 5 times with PBS using a Filtermate™ Harvester (a cell harvester that harvests and washes cells from microplates from PerkinElmer, Inc.). The radioactivities bound to the cells were determined using a microplate scintillation counter (TopCount® NXT, from PerkinElmer, Inc.) after adding 50 μL of Microscint™ 20 scintillation fluid (from PerkinElmer, Inc.) to each well of the filter plates. The radioactivity from non-specific binding was determined by replacing compound with 10 μM of 15(R)-15-methyl PGD2 (from Cayman Chemical Company) in the reaction mixtures. The radioactivity bound to the cells in the absence of compound (total binding) was determined by replacing compound with 0.25% of DMSO (dimethyl sulfoxide) in the reaction mixture. Specific binding data were obtained by subtracting the radioactivity of non-specific binding from each binding data.
The IC50 value is defined as the concentration of the tested compound that is required for 50% inhibition of total specific binding. In order to calculate the IC50 value, the percent inhibition data were determined for 7 concentrations for each compound. The percent inhibition for a compound at each concentration was calculated according to the following formula, [1-(specific binding in the presence of compound)/(total specific binding)]×100. The IC50 value was then obtained by fitting the percent inhibition data to a sigmoidal dose-response (4 parameter logistic) model in the XLfit® software Excel add-in program [from ID Business Solutions Ltd., model 205, where F(x)=(A+(B−A)/(1+((C/x)̂D)))].

SMILES	IC50 [µM]
CC(C)c1cccc(-c2ccc(S(=O)(=O)N(C)C3CCCCc4c(OCC(=O)O)cccc43)cc2)c1 (stereo not shown) [Example 20, {5-[(3′-Isopropyl-biphenyl-4-sulfonyl)-methyl-amino]-6,7,8,9-tetrahydro-5H-benzocyclohepten-1-yloxy}-acetic acid]	0.106
CN(C1CCCCc2c(OCC(=O)O)cccc21)S(=O)(=O)c1ccc(-c2cccc(S(C)(=O)=O)c2)cc1 (stereo not shown) [Example 30, {5-[(3′-Methanesulfonyl-biphenyl-4-sulfonyl)-methyl-amino]-6,7,8,9-tetrahydro-5H-benzocyclohepten-1-yloxy}-acetic acid]	0.189
Cc1ccc(-c2cccc(S(=O)(=O)N(C)C3CCCCc4c(OCC(=O)O)cccc43)c2)cc1 (stereo not shown) [Example 40, {5-[Methyl-(4′-methyl-biphenyl-3-sulfonyl)-amino]-6,7,8,9-tetrahydro-5H-benzocyclohepten-1-yloxy}-acetic acid]	0.555
CC(C)c1cccc(-c2cccc(S(=O)(=O)N(C)C3CCCCc4c(OCC(=O)O)cccc43)c2)c1 (stereo not shown) [Example 42, {5-[(3′-Isopropyl-biphenyl-3-sulfonyl)-methyl-amino]-6,7,8,9-tetrahydro-5H-benzocyclohepten-1-yloxy}-acetic acid]	0.845
CSc1cccc(-c2ccc(S(=O)(=O)N(C)C3CCCCc4c(OCC(=O)O)cccc43)cc2)c1 (stereo not shown) [Example 28, {5-[Methyl-(3′-methylsulfanyl-biphenyl-4-sulfonyl)-amino]-6,7,8,9-tetrahydro-5H-benzocyclohepten-1-yloxy}-acetic acid]	0.603
CN(C1CCCCc2c(OCC(=O)O)cccc21)S(=O)(=O)c1cc(C(F)(F)F)cc(S(C)(=O)=O)c1 (stereo not shown) [Example 18, {5-[(3-Methanesulfonyl-5-trifluoromethyl-benzenesulfonyl)-methyl-amino]-6,7,8,9-tetrahydro-5H-benzocyclohepten-1-yloxy}-acetic acid]	0.0114
Cc1cc(-c2ccc(S(=O)(=O)NC3CCCCc4c(OCC(=O)O)cccc43)cc2)cc(C(C)(C)C)c1 (stereo not shown) [Example 21, [5-(3′-tert-Butyl-5′-methyl-biphenyl-4-sulfonylamino)-6,7,8,9-tetrahydro-5H-benzocyclohepten-1-yloxy]-acetic acid]	0.0347
CSc1cccc(-c2ccc(S(=O)(=O)NC3CCCCc4c(OCC(=O)O)cccc43)cc2)c1 (stereo not shown) [Example 27, [5-(3′-Methylsulfanyl-biphenyl-4-sulfonylamino)-6,7,8,9-tetrahydro-5H-benzocyclohepten-1-yloxy]-acetic acid]	0.0243
CS(=O)(=O)c1cc(S(C)(=O)=O)cc(S(=O)(=O)NC2CCCCc3c(OCC(=O)O)cccc32)c1 (stereo not shown) [Example 10, [5-(3,5-Bis-methanesulfonyl-benzenesulfonylamino)-6,7,8,9-tetrahydro-5H-benzocyclohepten-1-yloxy]-acetic acid]	0.0503
CC(C)c1cc(C(F)(F)F)cc(S(=O)(=O)N(C)C2CCCCc3c(OCC(=O)O)cccc32)c1 (stereo not shown) [Example 44, {5-[(3-Isopropyl-5-trifluoromethyl-benzenesulfonyl)-methyl-amino]-6,7,8,9-tetrahydro-5H-benzocyclohepten-1-yloxy}-acetic acid]	0.199
Cc1cc(-c2ccc(S(=O)(=O)N(C)C3CCCCc4c(OCC(=O)O)cccc43)cc2)cc(C(C)(C)C)c1 (stereo not shown) [Example 22, {5-[(3′-tert-Butyl-5′-methyl-biphenyl-4-sulfonyl)-methyl-amino]-6,7,8,9-tetrahydro-5H-benzocyclohepten-1-yloxy}-acetic acid]	0.189
Cc1cncc(-c2ccc(S(=O)(=O)N(C)C3CCCCc4c(OCC(=O)O)cccc43)cc2)c1 (stereo not shown) [Example 26, (5-{Methyl-[4-(5-methyl-pyridin-3-yl)-benzenesulfonyl]-amino}-6,7,8,9-tetrahydro-5H-benzocyclohepten-1-yloxy)-acetic acid]	1.5
CC(C)c1cccc(-c2ccc(S(=O)(=O)N(C)C3CCCCc4c(OCC(=O)O)cccc43)nc2)c1 (stereo not shown) [Example 32, (5-{[5-(3-Isopropyl-phenyl)-pyridine-2-sulfonyl]-methyl-amino}-6,7,8,9-tetrahydro-5H-benzocyclohepten-1-yloxy)-acetic acid]	0.123
Cc1ccc(-c2cccc(S(=O)(=O)NC3CCCCc4c(OCC(=O)O)cccc43)c2)cc1 (stereo not shown) [Example 39, [5-(4′-Methyl-biphenyl-3-sulfonylamino)-6,7,8,9-tetrahydro-5H-benzocyclohepten-1-yloxy]-acetic acid]	0.514
O=C(O)COc1cccc2c1CCCCC2NS(=O)(=O)c1cc(C(F)(F)F)cc(C(F)(F)F)c1 (single isomer, unassigned) [Example 45, [5-(3,5-Bis-trifluoromethyl-benzenesulfonylamino)-6,7,8,9-tetrahydro-5H-benzocyclohepten-1-yloxy]-acetic acid]	1.49
CC(C)c1cc(C(F)(F)F)cc(S(=O)(=O)NC2CCCCc3c(OCC(=O)O)cccc32)c1 (stereo not shown) [Example 43, [5-(3-Isopropyl-5-trifluoromethyl-benzenesulfonylamino)-6,7,8,9-tetrahydro-5H-benzocyclohepten-1-yloxy]-acetic acid]	0.298
